The source of these data is publication PMC12040169 (PLOS Biology, 2025).

Structures are written as SMILES.

This data set is described as follows: in vitro. Particulars: human, hela cells, % viability.
One may read the viability as a read-out of living cells in per cent, often relative to untreated cells. Take `COc1ccc(N2CCN(c3cc(-c4ccc(OC(F)(F)F)cc4)ncn3)CC2)cc1OC` [CBK091032]: the viability at 28.5 h, 10 µM worked out at 94.1%.
The result for `CC[C@@H]1CCCCN1C(=O)c1sc2nc(C(C)=O)ccc2c1Cl` [CBK091036] reads 88.1%; that for `CC[C@H]1CCCCN1C(=O)c1sc2nc(C(C)=O)ccc2c1Cl` [CBK091046], 101%; that for `Cc1cc(O)ccc1Nc1cc(-c2ccccc2N(C)C)ncn1` [CBK091051], 104%.
Turning to `COc1cncc(-c2cc(Nc3ccc(O)cc3C)ncn2)c1` [CBK091061], the viability at 28.5 h, 10 µM amounted to 103%.
As for `O=C(CN1CCN(c2cc(-c3ccc4ccccc4c3)ncn2)CC1)N1CCCC1` [CBK091064], the viability at 28.5 h, 10 µM was determined as 104%.
Turning to `O=C(O)CCc1ccc(-c2cc(N3CCN(CC(=O)N4CCCC4)CC3)ncn2)cc1` [CBK091079], the viability at 28.5 h, 10 µM was 104%.
As for `c1ccc(Oc2ccccc2-c2cc(N3CCN(c4ccccn4)CC3)ncn2)cc1` [CBK091083], the viability at 28.5 h, 10 µM came to 91.5%.
With `c1ccc(N2CCN(c3cc(-c4cc5ccccc5s4)ncn3)CC2)nc1` [CBK091084] the figure was 102%; with `O=[N+]([O-])c1cccc(-c2cc(NCCc3ccccn3)ncn2)c1` [CBK091087], 96.7%.
With `Nc1ccc(C(=O)Nc2ccc(Nc3cc(-c4cc(C(F)(F)F)cc(C(F)(F)F)c4)ncn3)cc2)cc1` [CBK091091] the figure was 94.8%; with `Nc1ccc(C(=O)Nc2ccc(Nc3cc(-c4ccccc4OCc4ccccc4)ncn3)cc2)cc1` [CBK091092], 94.4%; with `O=C(c1ccco1)N1CCN(c2cc(-c3cccc4cccnc34)ncn2)CC1` [CBK091117], 99.1%.
For the compound `COc1cncc(-c2cc(N3CCN(C(=O)c4ccco4)CC3)ncn2)c1` [CBK091121], the viability at 28.5 h, 10 µM is 97.4%.
Regarding `CN(C(=O)CN1CCN(c2cc(-c3ccsc3)ncn2)CC1)c1ccccc1` [CBK091129], the viability at 28.5 h, 10 µM came out at 99.7%.
As for `CN(C(=O)CN1CCN(c2cc(-c3cccc4oc5ccccc5c34)ncn2)CC1)c1ccccc1` [CBK091130], the viability at 28.5 h, 10 µM is 97.8%.
Take `CC(=O)Nc1cccc(-c2cc(N3CCN(CC(=O)N(C)c4ccccc4)CC3)ncn2)c1` [CBK091134]: the viability at 28.5 h, 10 µM is 99.7%.
Take `CN(C(=O)CN1CCN(c2cc(-c3cccc([N+](=O)[O-])c3)ncn2)CC1)c1ccccc1` [CBK091137]: the viability at 28.5 h, 10 µM stood at 103%.
On to `Cc1ccc(Nc2cc(-c3ccsc3)ncn2)cc1NS(C)(=O)=O` [CBK091149], for which the viability at 28.5 h, 10 µM was determined as 97.9%.
For the compound `Cc1ccc(Nc2cc(-c3cccc4oc5ccccc5c34)ncn2)cc1NS(C)(=O)=O` [CBK091150], the viability at 28.5 h, 10 µM was found to be 93.6%.
With `COc1cncc(-c2cc(N3CCN(S(=O)(=O)c4ccc(Cl)cc4)CC3)ncn2)c1` [CBK091162], the viability at 28.5 h, 10 µM turned out to be 108%.
Regarding `CC(=O)c1ccc(-c2cc(N3CCN(CCN4CCCC4)CC3)ncn2)s1` [CBK091169], the viability at 28.5 h, 10 µM was found to be 98.8%.
With `COc1cc(CNc2cc(-c3ccco3)ncn2)cc(OC)c1OC` [CBK091181] the figure was 106%; with `COc1cncc(-c2cc(NCc3cc(OC)c(OC)c(OC)c3)ncn2)c1` [CBK091183], 88.4%.
With `COc1ccc(-c2cc(NCc3cc(OC)c(OC)c(OC)c3)ncn2)cc1` [CBK091184] the figure was 90%; with `COc1cc(CNc2cc(-c3ccc(NC(C)=O)cc3)ncn2)cc(OC)c1OC` [CBK091185], 93.6%.
As for `N#CCc1ccc(Nc2cc(-c3cccc(N)c3)ncn2)cc1` [CBK091187], the viability at 28.5 h, 10 µM is 96.7%.
For `CCN(CC)CCN1CCN(c2cc(-c3cc(C(F)(F)F)cc(C(F)(F)F)c3)ncn2)CC1` [CBK091195], the viability at 28.5 h, 10 µM was determined as 94%.
The result for `CC(=O)c1cccc(-c2cnc(Nc3ccc(N4CCOCC4)cc3)c3nccn23)c1` [CBK091217] reads 91.5%.
